Results taken from ChEMBL document CHEMBL1201862, “PubChem BioAssay data set” (2004).
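96-well plates; 48 h exposure; 5 concentrations. Endpoints by linear interpolation between flanking doses. Not reached: highest tested concentration assigned. Here, GI50 denotes the concentration required for 50% inhibition of growth.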 Activity calls are given as the source filed them. Cut-off read from the data, not from the text of the source: active = GI50 up to about 1.1 µM and inactive = higher.

Key:
Test in all cases: NCI-60 cell line screen, 48 h
K562 = tested on: K562
SW-620 = tested on: SW-620
A498 = tested on: A498
LOX IMVI = tested on: LOX IMVI
SNB-75 = tested on: SNB-75
UO-31 = tested on: UO-31
RPMI-8226 = tested on: RPMI-8226
HCT-116 = tested on: HCT-116
U-251 = tested on: U-251
PC-3 = tested on: PC-3
NCI-H522 = tested on: NCI-H522
KM12 = tested on: KM12
HT-29 = tested on: HT-29
OVCAR-8 = tested on: OVCAR-8
COLO 205 = tested on: COLO 205
NCI-H23 = tested on: NCI-H23
OVCAR-4 = tested on: OVCAR-4
SF-539 = tested on: SF-539
OVCAR-5 = tested on: OVCAR-5
MOLT-4 = tested on: MOLT-4

Structure (SMILES)	GI50 (K562)	GI50 (SW-620)	GI50 (A498)	GI50 (LOX IMVI)	GI50 (SNB-75)	GI50 (UO-31)	GI50 (RPMI-8226)	GI50 (HCT-116)	GI50 (U-251)	GI50 (PC-3)	GI50 (NCI-H522)	GI50 (KM12)	GI50 (HT-29)	GI50 (OVCAR-8)	GI50 (COLO 205)	GI50 (NCI-H23)	GI50 (OVCAR-4)	GI50 (SF-539)	GI50 (OVCAR-5)	GI50 (MOLT-4)
NC(=O)/N=C1\NCCC(=O)N1CCc1c[nH]c2ccccc12	12.4 µM (inactive)	26.7 µM (inactive)	17.3 µM (inactive)	11 µM (inactive)	10.2 µM (inactive)	15.9 µM (inactive)	18.7 µM (inactive)	12.4 µM (inactive)	45.2 µM (inactive)	11.9 µM (inactive)	25.7 µM (inactive)	37.8 µM (inactive)	17.1 µM (inactive)	17.9 µM (inactive)	14.1 µM (inactive)	22.7 µM (inactive)	19 µM (inactive)	15.6 µM (inactive)	39.4 µM (inactive)	14.5 µM (inactive)
NCCSCCC(=O)O	31.8 µM (inactive)	19.7 µM (inactive)	> 68.7 µM (inactive)	39 µM (inactive)	> 40.3 µM (inactive)	> 100 µM (inactive)	25.8 µM (inactive)	> 56.6 µM (inactive)	> 44 µM (inactive)	> 82 µM (inactive)	> 66.1 µM (inactive)	> 82.8 µM (inactive)	> 84.1 µM (inactive)	> 84.3 µM (inactive)	30.4 µM (inactive)	> 25.8 µM (inactive)	> 100 µM (inactive)	21.9 µM (inactive)	> 100 µM (inactive)	29.7 µM (inactive)
C=CCCC1CCCCC/C1=N\N(C)C (stereo not given)	> 100 µM (inactive)	> 100 µM (inactive)	> 100 µM (inactive)	> 100 µM (inactive)	> 100 µM (inactive)	> 100 µM (inactive)	> 100 µM (inactive)	> 100 µM (inactive)	> 100 µM (inactive)	> 100 µM (inactive)	> 100 µM (inactive)	> 100 µM (inactive)	> 100 µM (inactive)	> 100 µM (inactive)	> 100 µM (inactive)	> 100 µM (inactive)	> 100 µM (inactive)	> 100 µM (inactive)	> 100 µM (inactive)	> 100 µM (inactive)
CC(=O)Nc1c(C)cc2c(nc3n2CCC3O)c1[N+](=O)[O-] (stereo not given)	> 100 µM (inactive)	> 100 µM (inactive)	> 100 µM (inactive)	> 100 µM (inactive)	> 100 µM (inactive)	> 100 µM (inactive)	> 100 µM (inactive)	> 100 µM (inactive)	> 100 µM (inactive)	> 100 µM (inactive)	> 100 µM (inactive)	> 100 µM (inactive)	> 100 µM (inactive)	> 100 µM (inactive)	> 100 µM (inactive)	> 100 µM (inactive)	> 100 µM (inactive)	> 100 µM (inactive)	> 100 µM (inactive)	> 100 µM (inactive)
O=c1[nH]nc(-c2ccccc2)n1/N=C/c1cccc([N+](=O)[O-])c1	> 100 µM (inactive)	> 100 µM (inactive)	> 100 µM (inactive)	> 100 µM (inactive)	> 100 µM (inactive)	> 100 µM (inactive)	> 100 µM (inactive)	> 100 µM (inactive)	41.5 µM (inactive)	> 100 µM (inactive)	8.15 µM (inactive)	> 100 µM (inactive)	> 100 µM (inactive)	93.5 µM (inactive)	> 100 µM (inactive)	> 100 µM (inactive)	> 100 µM (inactive)	30.1 µM (inactive)	> 100 µM (inactive)	> 100 µM (inactive)
O=C1/C(=C/c2ccc(O)c([N+](=O)[O-])c2)CCC/C1=C\c1ccc(O)c([N+](=O)[O-])c1	15.7 µM (inactive)	10.2 µM (inactive)	6.55 µM (inactive)	9.89 µM (inactive)	1.61 µM (inactive)	15.2 µM (inactive)	13.1 µM (inactive)	8.45 µM (inactive)	9.33 µM (inactive)	13.3 µM (inactive)	8.93 µM (inactive)	9.4 µM (inactive)	12.3 µM (inactive)	18.5 µM (inactive)	13.5 µM (inactive)	12.3 µM (inactive)	18.9 µM (inactive)	19.3 µM (inactive)	15.4 µM (inactive)	13.9 µM (inactive)
Cc1cccc2cc3ccc4ccccc4c3cc12	63.1 µM (inactive)	44 µM (inactive)	44.2 µM (inactive)	39.4 µM (inactive)	69.2 µM (inactive)	77.8 µM (inactive)	34.6 µM (inactive)	30 µM (inactive)	41.4 µM (inactive)	66.5 µM (inactive)	27.9 µM (inactive)	37.2 µM (inactive)	30.7 µM (inactive)	> 100 µM (inactive)	19.4 µM (inactive)	54.5 µM (inactive)	47.3 µM (inactive)	74 µM (inactive)	38.5 µM (inactive)	25.7 µM (inactive)
CC(=O)OC1C(O)C(C)OC(OC2C(OC(=O)C3CCC4C(C3)OC3(CC(OC(=O)/C=C/c5ccccc5)C(C)CO3)C43CO3)OC(C)C(O)C2OC(C)=O)C1O (stereo not given)	0.00622 µM (active)	0.0111 µM (active)	0.0526 µM (active)	0.00463 µM (active)	0.00867 µM (active)	0.721 µM (active)	0.00227 µM (active)	0.00661 µM (active)	0.00679 µM (active)	0.00513 µM (active)	0.00284 µM (active)	0.00912 µM (active)	0.00689 µM (active)	0.0352 µM (active)	0.0078 µM (active)	0.0123 µM (active)	0.00752 µM (active)	0.00736 µM (active)	0.0291 µM (active)	0.00468 µM (active)
COC(=O)c1ccccc1NC(=O)C(=O)CC(=O)c1ccccc1NC1=CC(=O)C(=O)c2ccccc21	2.91 µM (inactive)	5.4 µM (inactive)	> 56.2 µM (inactive)	1.68 µM (inactive)	17.5 µM (inactive)	15.1 µM (inactive)	2.64 µM (inactive)	4.67 µM (inactive)	11.1 µM (inactive)	10.9 µM (inactive)	5.22 µM (inactive)	15.2 µM (inactive)	44.5 µM (inactive)	7.01 µM (inactive)	31.9 µM (inactive)	5.09 µM (inactive)	7.91 µM (inactive)	18.6 µM (inactive)	29.2 µM (inactive)	3.98 µM (inactive)
OCCN(C1=NCCN1)/[N+](=C\c1ccccn1)[CH-]c1ccccn1	> 100 µM (inactive)	> 100 µM (inactive)	> 100 µM (inactive)	> 100 µM (inactive)	> 100 µM (inactive)	> 100 µM (inactive)	12.1 µM (inactive)	> 100 µM (inactive)	> 100 µM (inactive)	> 100 µM (inactive)	> 100 µM (inactive)	> 100 µM (inactive)	> 100 µM (inactive)	> 100 µM (inactive)	> 100 µM (inactive)	> 100 µM (inactive)	> 100 µM (inactive)	> 100 µM (inactive)	> 100 µM (inactive)	> 100 µM (inactive)
N#Cc1cc2c(cc1Cl)Sc1nccn1S2(=O)=O	2.69 µM (inactive)	3.54 µM (inactive)	18.3 µM (inactive)	1.57 µM (inactive)	7.53 µM (inactive)	5.52 µM (inactive)	2.92 µM (inactive)	1.79 µM (inactive)	1.6 µM (inactive)	4 µM (inactive)	1.15 µM (inactive)	5.79 µM (inactive)	0.977 µM (active)	2.82 µM (inactive)	12.4 µM (inactive)	1.51 µM (inactive)	6.05 µM (inactive)	3.7 µM (inactive)	14.4 µM (inactive)	0.667 µM (active)
Cc1ccc(S(=O)(=O)N2CCCCN(S(=O)(=O)c3ccc(C)cc3)Cc3ccccc3OCCOCCOc3c4cccc3Cc3cccc5c3OCCOCCOc3ccccc3CN(S(=O)(=O)c3ccc(C)cc3)CCCN(S(=O)(=O)c3ccc(C)cc3)Cc3ccccc3OCCOCCOc3c(cccc3C4)Cc3cccc(c3OCCOCCOc3ccccc3C2)C5)cc1	> 100 µM (inactive)	> 100 µM (inactive)	53.2 µM (inactive)	> 100 µM (inactive)	> 100 µM (inactive)	> 100 µM (inactive)	> 100 µM (inactive)	> 100 µM (inactive)	> 100 µM (inactive)	> 100 µM (inactive)	78.9 µM (inactive)	> 100 µM (inactive)	> 100 µM (inactive)	> 100 µM (inactive)	> 100 µM (inactive)	> 100 µM (inactive)	> 100 µM (inactive)	> 100 µM (inactive)	> 100 µM (inactive)	> 100 µM (inactive)
CC(C)NC(=O)OCc1c(COC(=O)NC(C)C)c(-c2cc[n+](COC(=O)C3CCCCC3)cc2)n2c1CCC2	> 100 µM (inactive)	> 100 µM (inactive)	> 100 µM (inactive)	> 100 µM (inactive)	43.4 µM (inactive)	> 100 µM (inactive)	> 100 µM (inactive)	> 100 µM (inactive)	> 100 µM (inactive)	> 100 µM (inactive)	> 100 µM (inactive)	> 100 µM (inactive)	> 100 µM (inactive)	> 100 µM (inactive)	> 100 µM (inactive)	> 100 µM (inactive)	> 100 µM (inactive)	21.9 µM (inactive)	> 100 µM (inactive)	40.8 µM (inactive)
